{"source": "patent US6489307B1", "about": "“Antisense compositions targeted to β1-adrenoceptor-specific mRNA and methods of use” (University of Florida, priority 1998, dated 2002)", "key": {"[1]": {"experiment": "Tissue histology after repeated injections", "assay_type": "in vivo, rat (SHR)", "settings": "three repeated injections, more than 2 months", "from_the_text": "(§1) Safety profiles including liver transaminases, hematology, immune response and tissue pathology were investigated during three repeated injections of β1-AS-ODNs for extended periods of time.\nHeart, liver, spleen and kidney were subjected to pathological examination after three repeated injections of β1-AS-ODN for more than 2 months."}, "[2]": {"test_system": "SHRs", "settings": "Zhang et al., 1999; without causing bradycardia; cited from earlier work"}, "[3]": {"test_system": "β2-AR", "experiment": "β-adrenergic receptor binding assay on renal cortex membranes", "assay_type": "in vivo, rat (SHR)", "settings": "0.5 mg/kg i.v.", "description": "Four days after intravenous injection of saline (n=6) or 0.5 mg/kg inverted ODN (n=6) or 4, 10, 18 and 40 days after injection of 0.5 mg/kg β1-AS-ODN (n=24), animals were euthanized, and membranes were prepared from the renal cortex of the left kidneys as previously described (Baker and Pitha, 1982). For saturation studies, 100 μg membrane protein was incubated in triplicate with 6 concentrations of [^125](−)iodocyanopindolol (ICYP, NEN Life Science, 6.25 to 100 pmol/L) in a total volume of 250 μL containing 50 mmol/L Tris-HCl (pH 7.4) and 5 mmol/L MgCl2 at 36° C. for 60 min. The nonspecific and β2-adrenergic receptor binding levels were determined in the presence of 1 μmol/L (±)-alprenolol and […] CGP20712A (RBI), respectively. Then the reaction mixture was passed through a Whatman GF/B glass fiber filter with a Brandel harvester, and the bound radioactivity was counted for 1 min."}, "[4]": {"test_system": "β1-AR mRNA", "experiment": "RT-PCR and Southern blotting, renal cortex", "assay_type": "in vivo, rat (SHR)", "settings": "0.5 mg/kg i.v., semiquantitative RT-PCR", "description": "(§2) At different time points after the single injection of β1-AS-ODN or inverted ODN, rats were euthanized, and the renal cortex was dissected from the left kidneys, immediately dipped into RNA later tissue storage buffer (Ambion), and stored at −20° C. Total RNA was extracted with RNAwiz reagent (Ambion) and quantified by spectrophotometer. RNA samples from 4 to 5 rats from each time point were pooled. RNA (5 μg) was digested by DNase I and reverse-transcribed by Superscript reverse transcriptase (GIBCO BRL) at 42° C. for 50 min. and 1/20 of the reverse transcription (RT) product was used to run a polymerase chain reaction (PCR) for 20 cycles. PCR primers for β1-AR were 5′-[…]-3′ (SEQ ID NO:199) (forward) and 5′-[…]-3′ (SEQ ID NO:200) (reverse) and yielded products of 432 bp, which spanned the AUG start codon. Primers for preprorenin were 5′-[…]-3′ (SEQ ID NO:201) (forward) and 5′-[…]-3′ (SEQ ID NO:202) (reverse) and yielded products of 362 bp.\n(§3) Primers for GAPDH were 5′-[…]-3′ (SEQ ID NO:203) (forward) and 5′-[…]-3′ (SEQ ID NO:204) (reverse) and yielded products of 505 bp (Jo et al., 1996). RT-PCR products were subjected to Southern blotting, hybridized with psoralen-biotin-labeled cDNA probes, and detected with nonisotopic kits (Ambion). After the membranes had been exposed to x-ray films, the intensity of β1-AR and preprorenin mRNAs was quantified by densitometry and normalized with GAPDH mRNA levels. The studies were repeated at least twice."}, "[5]": {"test_system": "preprorenin mRNA", "experiment": "RT-PCR and Southern blotting, renal cortex", "assay_type": "in vivo, rat (SHR)", "description": "as §2, §3"}, "[6]": {"experiment": "Immune response (gel immunodiffusion, C-reactive protein)", "assay_type": "in vivo, rat (SHR)", "settings": "after repeated administration", "from_the_text": "as §1\nC-reactive protein (CRP), a clinical index for immune reaction, was found negative in all animals."}, "[7]": {"test_system": "PRA", "description": "PRA was determined with an angiotensin I (^125I) radioimmunoassay kit (DuPont). Plasma Ang II levels were measured by radioimmunoassay as previously described (Phillips and Kimura, 1988)."}, "[8]": {"test_system": "SHRs", "experiment": "Telemetric monitoring of conscious SHRs during dobutamine infusion", "assay_type": "in vivo, rat (SHR)", "description": "Two days after catherization of the jugular vein, control values were taken and 1 mg/kg β1-AS-ODN was injected. 48 hr later, rats were tested for the effect of β1-AS-ODN. The rats were allowed to recover until all the cardiovascular parameters returned to control values. […] For β1-stimulation, SHRs were infused with dobutamine (β1-selective agonist) through a jugular vein catheter at 5, 10, 20, and 40 μg·kg^−1·min.^−1. Each dose was given for 5 min. continuously and at 1-hr intervals until all the cardiovascular parameters returned to baseline values so as to avoid the effect of tachyphylaxis. BP and HR were sampled every 1 min. dP/dtmax was calculated from the slope of the rising pulse-pressure curve and determined every 1 min. The difference between values at each dose and baseline was denoted as Δ.\nTwo days after catheterization of jugular vein, control values were taken and 1 mg/kg β1-AS-ODN was injected. Forty-eight hr later, rats were tested for the effect of β1-AS-ODN. The rats were allowed to recover until all the cardiovascular parameters returned to control values. […] For β1-stimulation, SHR were infused with dobutamine (β1-selective agonist) through jugular vein catheter at 5, 10, 20, 40 μg/kg/min. Each dose was given for 5 min continuously and at 1-hr intervals until all cardiovascular parameters returned to baseline so as to avoid the effect of tachyphylaxis. BP and HR were sampled every min. dP/dtmax was calculated from the slope of the rising pulse pressure curve and determined every min. The difference between values at each dose and baseline was denoted as Δ."}, "[9]": {"target": "T1, β1-ARs (Rattus norvegicus, UniProt P18090)", "T1 construct": "membranes were prepared from heart ventricles as previously described; from tissue; host or cells: heart ventricles of SHR", "T1 sequence (P18090 whole entry)": "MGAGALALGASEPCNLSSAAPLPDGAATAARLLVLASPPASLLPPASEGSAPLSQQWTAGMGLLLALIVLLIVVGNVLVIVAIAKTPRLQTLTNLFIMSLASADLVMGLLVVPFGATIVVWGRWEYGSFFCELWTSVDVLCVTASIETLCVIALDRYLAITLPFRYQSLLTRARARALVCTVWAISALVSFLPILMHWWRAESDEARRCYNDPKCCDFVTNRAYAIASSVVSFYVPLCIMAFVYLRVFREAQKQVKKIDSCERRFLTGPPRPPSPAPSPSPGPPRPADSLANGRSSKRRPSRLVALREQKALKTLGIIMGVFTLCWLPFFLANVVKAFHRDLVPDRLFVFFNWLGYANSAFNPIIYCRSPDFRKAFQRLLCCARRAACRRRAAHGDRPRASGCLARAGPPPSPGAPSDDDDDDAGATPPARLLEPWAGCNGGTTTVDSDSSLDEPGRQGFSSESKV", "settings": "even after 18 days, single i.v. injection (Zhang et al., 1999); cited from earlier work"}, "[10]": {"test_system": "plasma Ang II", "experiment": "Plasma Ang II radioimmunoassay", "assay_type": "in vivo, rat (SHR)"}}, "note": "Like-named read-outs stand apart in the source and are kept apart here.", "data": [{"substance": "5′-CCGCGCCCATGCCGA-3′ (phosphorothioate backbone, further chemistry not given here) [β1-AS-ODN, 15-mer antisense ODN targeted to the AUG start codon of rat β1-AR mRNA]", "values": [{"measurement": "pathological examination of heart, liver, spleen and kidney", "setting": "[1]", "result": "No immunopathology or organ damage"}, {"measurement": "maximum drop in blood pressure", "setting": "[2]", "result": 38, "unit": "mmHg"}, {"measurement": "β2-AR level in renal cortex", "setting": "[3]", "result": "not affected"}, {"measurement": "level of steady-state β1-AR mRNA in renal cortex", "setting": "[4]", "result": "did not reduce"}, {"measurement": "level of steady-state β1-AR mRNA in renal cortex", "setting": "[4]; listed as AS-ODN", "result": "no reduction"}, {"measurement": "preprorenin mRNA level in renal cortex", "setting": "[5]; 4 days after injection", "result": "62 % of control"}, {"measurement": "preprorenin mRNA decrease", "setting": "[5]; by day 18", "result": "completely reversed"}, {"measurement": "C-Reactive Protein", "setting": "[6]", "result": "negative"}, {"measurement": "Antibody to ODN", "setting": "[6]; gel immunodiffusion", "result": "no detectable antibody"}, {"measurement": "PRA", "setting": "[7]; day 4", "result": "not on day 4"}, {"measurement": "PRA", "setting": "[7]; day 10 and day 18", "result": "significantly decreased"}, {"measurement": "time after injection until decrease in PRA and Ang II occurred", "setting": "[7]; single injection", "result": "≈ 10 days"}, {"measurement": "basal (resting) HR", "setting": "[8]; 1 mg/kg, control 365±8", "result": "365±12", "unit": "bpm"}, {"measurement": "basal dP/dtmax", "setting": "[8]; 1 mg/kg, control 2937±277", "result": "2922±249", "unit": "mm Hg/s"}, {"measurement": "resting dP/dtmax", "setting": "[8]; 1 mg/kg, control 2937±277", "result": "2922±249", "unit": "mmHg/sec"}, {"measurement": "change in HR in the face of dobutamine", "setting": "[8]; 48 hr after 1 mg/kg", "result": "not significantly reduced"}, {"measurement": "increase in dP/dtmax in the face of dobutamine", "setting": "[8]; 48 hr after 1 mg/kg", "result": "significantly (P<0.02) dampened"}, {"measurement": "decrease in ventricular β1-AR density", "setting": "[9]", "result": "30-50%"}, {"measurement": "plasma Ang II levels", "setting": "[10]; day 4", "result": "not on day 4"}, {"measurement": "plasma Ang II levels", "setting": "[10]; day 10 and day 18", "result": "significantly decreased"}]}]}
